Measurements published in US20090197279A1, “MICROTUBULE SYNTHESIS AS A BIOMARKER” (KINEMED, INC., priority 2005, published 2009).

What was measured:
[1] = test system: total hippocampal proteins; assay: Fractional synthesis of total hippocampal proteins; format: in vivo, mouse; conditions: glutamate ICVC vs mock-treated animals
Description: (§1) FIG. 7 depicts the effects of ICV glutamate on the relative amounts of MT subpopulations and on total protein synthesis in murine hippocampus. (A, B) Tubulin abundances are measured by Western blot analysis for α-tubulin at 8 hour (A) and 24 hours (B). Subpopulations were total extract (total), free tubulin dimers, tau-associated MTs, tau-nonassociated (MAP2/STOP) MTs and cold stable (CS) MTs. Mock and glutamate infused ICVC mice are shown (cf. FIGS. 6A and B). […] (C) Fractional synthesis of total hippocampal proteins. Glutamate increased protein synthesis versus mock-treated animals (*p<0.01); this effect was blocked by coadministration with 0.66 pmol of Rp-cAMP (**p<0.02).
This hypothesis had not previously been tested in the living brain, however. To test this hypothesis, we used the methods of the invention disclosed herein. Mice were infused with 6 μl water containing 0.48 nmol glutamate (80 μM in the infusate), or glutamate plus 0.66 pmol Rp-cAMP (110 nM in the infusate). Label incorporation into hippocampal tubulin dimers and into microtubule polymers was then quantified after administration of ^2H2O for 8 hours or 24 hours (FIGS. 7A and 7B). […] These findings further strengthen the previously reported correlation between hippocampus glutamate NMDA receptor-dependent learning (long-term potentiation) and protein synthesis (Kandel, E. R. The molecular biology of memory storage: a dialogue between genes and synapses. Science 294, 1030-1038 (2001)). By the same criterion, the glutamate-induced program of changes in hippocampal microtubule dynamics shown in FIGS. 6 and 7 also alters hippocampal total protein synthesis in vivo (data not show), further supporting the capacity of the invention disclosed herein to generate a biochemical record of basic neuroanatomic connectivity in the brain and thereby to reveal the dynamics of synaptogenesis in vivo.

[2] = test system: hippocampal MT subpopulations; assay: Tubulin abundance of MT subpopulations in hippocampus by Western blot for α-tubulin; format: in vivo, mouse; conditions: 0.48 nmol glutamate ICVC; 24 hours; vs mock
Description: as §1
Tubulin was purified using minor modifications of protocols described previously (Fanara, P., Oback, B., Ashman, K., Podtelejnikov, A., Brandt, R. Identification of MINUS, a small polypeptide that functions as a microtubule nucleation suppressor. EMBO J. 18, 565-577 (1999); Fanara, P. et al. In vivo measurement of microtubule dynamics using stable isotope labeling with heavy water. Effect of taxanes. J. Biol. Chem. 279, 49940-49947 (2004). Briefly, cultured neurons were gently scraped off culture plates, washed in phosphate-buffered saline (PBS), and homogenized in microtubule-stabilizing buffer. For purification ex vivo, mice were anesthetized with isoflurane and euthanized by cervical dislocation. Brains were rapidly removed and washed in microtubule-stabilizing buffer (MSB); hippocampi were dissected and gently homogenized in MSB. […] The relative abundance of tubulin in each preparation (Tubulin dimers and TAU5-bound, MAP2-bound, and unbound microtubule fractions) was quantified by Western blot, and tubulin from these fractions was further purified by ion exchange and size exclusion chromatography, as previously described (Fanara, P. et al. In vivo measurement of microtubule dynamics using stable isotope labeling with heavy water. Effect of taxanes. J. Biol. Chem. 279, 49940-49947 (2004)).

Compound: N[C@@H](CCC(=O)[O-])C(=O)[O-].[K+].[K+] [glutamate, potassium L-glutamate]
- fractional synthesis of total hippocampal proteins [1]: alters
- fractional synthesis of total hippocampal proteins ([1]; listed as Glutamate): increased
- abundance of CS-MTs, Western blot [2]: increased
- abundance of MAP2/STOP-MTs (MAP2-associated microtubules), Western blot [2]: increased
- abundance of tau-MTs, Western blot [2]: remained unchanged
